These results are taken from patent US10428080B2, “TBK/IKK inhibitor compounds and uses thereof” (Merck Patent GmbH, priority 2015, dated 2019).

In assay [1] the test system is phosphorylation of the IRF-3 protein in MDA-MB-468 cells. The experiment in a line: pIRF3 immunocytochemistry cell based assay. As to conditions: Homo sapiens; MDA-MB-468 cells, Poly(I:C) stimulation; read-out: pIRF3 IC50. As for the experimental part: The purpose of the pIRF3 immunocytochemistry cell based assay was to identify small molecules which modulates TBK/IKKe kinase activity through on target substrate phosphorylation of the IRF-3 protein. On the first day of the experiment, MDA-MB-468 cells were plated in 384 well, black, clear-bottom, Poly D lysine coated plates at a density of 5000 cells/well in 45 ul of complete DMEM and allowed to adhere overnight. On the second day compounds were added to cells at a starting concentration of 10 uM with a serial dilution of 3-fold for a total of 10 points. The cells were incubated for 1 hr at 37° C. Cells were then stimulated with Poly(I:C) at a final concentration of 10 ug/ml, and were incubated for 2 hr at 37° C. Following the incubation, media was removed from the wells and the cells were fixed with 4% PFA for 15 min at RT. Cells were washed at least 3 times with PBS, and then permeabilized with ice-cold methanol for 10 min at RT. The washing step was repeated and the cells were then blocked using 10% goat serum/1% BSA, made up in PBS and allowed to incubate at RT for 1 hr. The cells were washed again and then treated with an anti-pIRF3 antibody at 4° C. overnight (1:250 dilution of Abcam ab76493 in PBS containing 1% BSA). On the third day the primary antibody was washed off and pIRF3 was detected by adding the secondary antibody conjugated to AlexaFluor488 (1:200 dilution of secondary antibody in PBS containing 1% BSA) for 1 hr at RT. Cells were washed and then counterstained with PI/RNase staining buffer for 15 min at RT and read on the Acumen Explorer laser scanning cytometer. The percentage of phosphorylation of the IRF-3 protein was calculated using the following algorithm, a modified version of the mean half width intensity (pIRF3 staining)/(PI staining or # of cells)×100%). IC50 curves were generated using the Genedata software.

For another assay, the target named is T1, TBK1 (Homo sapiens, UniProt Q9UHD2).
T1 sequence (Q9UHD2 1-729): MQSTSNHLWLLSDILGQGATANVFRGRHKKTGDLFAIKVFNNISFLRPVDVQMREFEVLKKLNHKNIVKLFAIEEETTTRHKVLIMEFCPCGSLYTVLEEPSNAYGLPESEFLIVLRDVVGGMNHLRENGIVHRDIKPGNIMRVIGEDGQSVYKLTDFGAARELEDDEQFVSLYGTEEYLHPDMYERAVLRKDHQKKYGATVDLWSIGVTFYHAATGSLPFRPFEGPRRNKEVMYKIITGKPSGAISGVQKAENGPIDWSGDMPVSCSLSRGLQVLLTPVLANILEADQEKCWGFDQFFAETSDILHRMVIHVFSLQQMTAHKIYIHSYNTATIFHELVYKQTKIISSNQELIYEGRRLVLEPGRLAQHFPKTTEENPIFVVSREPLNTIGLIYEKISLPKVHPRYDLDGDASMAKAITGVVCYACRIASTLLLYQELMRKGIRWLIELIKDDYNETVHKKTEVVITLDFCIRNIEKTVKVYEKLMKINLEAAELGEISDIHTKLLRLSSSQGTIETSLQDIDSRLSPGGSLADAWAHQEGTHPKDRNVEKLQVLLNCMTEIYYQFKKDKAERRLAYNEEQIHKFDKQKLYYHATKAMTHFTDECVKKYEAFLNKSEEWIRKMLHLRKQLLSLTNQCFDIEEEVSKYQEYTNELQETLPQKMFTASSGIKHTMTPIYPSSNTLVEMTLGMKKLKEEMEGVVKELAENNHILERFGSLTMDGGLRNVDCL
As to the kind of experiment: TBK Biochemical Assay. The note with it: read-out: TBK1 IC50. The method in brief: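 TBK1 enzyme and substrate incubated with compounds (10-point 1:4 dilution, top 30 uM final, 1% DMSO) for 90 min at 25° C, then stopped. Substrate/product peaks read by microfluidic mobility-shift (Caliper LabChip); 10 uM staurosporine as full-inhibition control.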

For the next assay, the target named is T2, IKKε (Homo sapiens, UniProt Q14164).
T2 sequence (Q14164 1-716): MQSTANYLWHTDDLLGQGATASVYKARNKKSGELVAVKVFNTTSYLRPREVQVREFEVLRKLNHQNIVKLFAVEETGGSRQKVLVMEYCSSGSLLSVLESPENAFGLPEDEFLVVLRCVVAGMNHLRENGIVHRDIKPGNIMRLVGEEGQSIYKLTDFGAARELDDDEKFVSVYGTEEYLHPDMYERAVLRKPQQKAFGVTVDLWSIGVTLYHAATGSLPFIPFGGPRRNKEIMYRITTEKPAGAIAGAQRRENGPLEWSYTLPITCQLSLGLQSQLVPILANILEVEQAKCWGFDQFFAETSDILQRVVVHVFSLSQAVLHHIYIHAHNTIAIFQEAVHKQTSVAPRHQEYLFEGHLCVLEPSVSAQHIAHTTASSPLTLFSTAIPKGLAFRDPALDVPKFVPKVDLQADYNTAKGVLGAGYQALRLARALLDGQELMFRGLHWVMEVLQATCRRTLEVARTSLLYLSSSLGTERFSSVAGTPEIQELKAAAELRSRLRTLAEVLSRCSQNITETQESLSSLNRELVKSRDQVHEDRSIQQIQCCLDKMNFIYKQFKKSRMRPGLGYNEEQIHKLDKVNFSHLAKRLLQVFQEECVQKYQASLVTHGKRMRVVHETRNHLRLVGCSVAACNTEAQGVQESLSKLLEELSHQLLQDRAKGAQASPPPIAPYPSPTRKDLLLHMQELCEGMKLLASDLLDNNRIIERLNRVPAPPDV
The experiment in a line: IKKe Biochemical Assay. The note with it: read-out: IKKε IC50. The procedure, abridged: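 Recombinant IKKε and substrate were incubated with compound (10-point 1:4 series, top 30 uM final, 1% DMSO) for 90 min at 25° C, then stopped. Substrate-to-product conversion was read by LabChip microfluidic mobility shift; 10 uM staurosporine served as full-inhibition wells.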

SMILES strings stand for the structures.

For the molecule `COc1cc(C(=O)N2CCC(CO)CC2)ccc1-c1cc2nccc(-c3ccc(OC4CCOCC4)c(C#N)c3)c2o1` [Compound 5, 5-{2-[4-(4-Hydroxymethyl-piperidine-1-carbonyl)-2-methoxy-phenyl]-furo[3,2-b]pyridin-7-yl}-2-(tetrahydro-pyran-4-yloxy)-benzonitrile], the IC50 (in assay [1]; at TBK1; at IKKε) was < 100 nM each time.

Consider `COc1cc(C(=O)N(C)C)ccc1-c1cc2nccc(-c3ccc(NC4CCOC4)c(C#N)c3)c2o1` (stereo not drawn) [Compound 7], for which the IC50 was 100 to 1000 nM in assay [1], < 100 nM on TBK1 and < 100 nM at IKKε.

`COc1cc(C(=O)N2CC(N3CCOCC3)C2)ccc1-c1cc2nccc(-c3ccc(OC4CCOCC4)c(C#N)c3)c2o1` [Compound 8]: the IC50 (in assay [1]; on TBK1; at IKKε) was < 100 nM each time.

For `COc1cc(C(=O)N2CC3CN(C)CC3C2)ccc1-c1cc2nccc(-c3ccc(OC4CCOCC4)c(C#N)c3)c2o1` (stereo not drawn) [Compound 9, 5-{2-[2-Methoxy-4-(5-methyl-hexahydro-pyrrolo[3,4-c]pyrrole-2-carbonyl)-phenyl]-furo[3,2-b]pyridin-7-yl}-2-(tetrahydro-pyran-4-yloxy)-benzonitrile], the half-maximal inhibitory concentration (IC50) (in assay [1]; on TBK1; on IKKε) was < 100 nM throughout.

Regarding `COc1cc(C(=O)N2CCCCC2CO)ccc1-c1cc2nccc(-c3ccc(OC4CCOCC4)c(C#N)c3)c2o1` (stereo not drawn) [Compound 10], the half-maximal inhibitory concentration (IC50) (in assay [1]; on TBK1; at IKKε) was < 100 nM throughout.

For `COc1cc(C(=O)NC2CCOCC2O)ccc1-c1cc2nccc(-c3ccc(OC4CCOCC4)c(C#N)c3)c2o1` (stereo not drawn) [Compound 11, 4-{7-[3-Cyano-4-(tetrahydro-pyran-4-yloxy)-phenyl]-furo[3,2-b]pyridin-2-yl}-N-(3-hydroxy-tetrahydro-pyran-4-yl)-3-methoxy-benzamide], the 50% inhibitory concentration (IC50) is 100 to 1000 nM in assay [1], < 100 nM on TBK1 and < 100 nM at IKKε.

In the case of `COc1cc(C(=O)N2CCN(CCO)CC2)ccc1-c1cc2nccc(-c3ccc(OC4CCOCC4)c(C#N)c3)c2o1` [Compound 13, 5-(2-{4-[4-(2-Hydroxy-ethyl)-piperazine-1-carbonyl]-2-methoxy-phenyl}-furo[3,2-b]pyridin-7-yl)-2-(tetrahydro-pyran-4-yloxy)-benzonitrile], the IC50 (in assay [1]; at TBK1; at IKKε) was < 100 nM in each case.

`COc1cc(C(=O)N2CC[C@H](O)C2)ccc1-c1cc2nccc(-c3ccc(OC4CCOCC4)c(C#N)c3)c2o1` [Compound 14, 5-{2-[4-((S)-3-Hydroxy-pyrrolidine-1-carbonyl)-2-methoxy-phenyl]-furo[3,2-b]pyridin-7-yl}-2-(tetrahydro-pyran-4-yloxy)-benzonitrile]: the IC50 (in assay [1]; on TBK1; at IKKε) was < 100 nM each time.

Regarding `COc1cc(C(=O)N2CCN(C)CC2)ccc1-c1cc2nccc(-c3ccc(OC4CCOCC4)c(C#N)c3)c2o1` [Compound 15, 5-{2-[2-Methoxy-4-(4-methyl-piperazine-1-carbonyl)-phenyl]-furo[3,2-b]pyridin-7-yl}-2-(tetrahydro-pyran-4-yloxy)-benzonitrile], the IC50 (in assay [1]; on TBK1; on IKKε) was < 100 nM in each case.

Take `COc1cc(C(=O)N2CCN(C)CC2)ccc1-c1cc2nccc(-c3ccc(N4CC[C@H](F)C4)c(C#N)c3)c2o1` [Compound 16, 2-((S)-3-Fluoro-pyrrolidin-1-yl)-5-{2-[2-methoxy-4-(4-methyl-piperazine-1-carbonyl)-phenyl]-furo[3,2-b]pyridin-7-yl}-benzonitrile]: the IC50 in assay [1] is 100 to 1000 nM; at TBK1 it was < 100 nM; on IKKε, < 100 nM.

For `COc1cc(C(=O)N2CC[C@@H](F)C2)ccc1-c1cc2nccc(-c3ccc(OC4CCOCC4)c(C#N)c3)c2o1` [Compound 17, 5-{2-[4-((R)-3-Fluoro-pyrrolidine-1-carbonyl)-2-methoxy-phenyl]-furo[3,2-b]pyridin-7-yl}-2-(tetrahydro-pyran-4-yloxy)-benzonitrile], the IC50 in assay [1] was 100 to 1000 nM; at TBK1 it was < 100 nM; on IKKε it was < 100 nM.

Turning to `COc1cc(C(=O)N2CC3CCC(O)C3C2)ccc1-c1cc2nccc(-c3ccc(OC4CCOCC4)c(C#N)c3)c2o1` (stereo not drawn) [Compound 18, 5-{2-[4-(4-Hydroxy-hexahydro-cyclopenta[c]pyrrole-2-carbonyl)-2-methoxy-phenyl]-furo[3,2-b]pyridin-7-yl}-2-(tetrahydro-pyran-4-yloxy)-benzonitrile], the IC50 was 100 to 1000 nM in assay [1], < 100 nM at TBK1 and < 100 nM on IKKε.

As to `COc1cc(C(=O)N2CC(N3CCCC3)C2)ccc1-c1cc2nccc(-c3ccc(OC4CCOCC4)c(C#N)c3)c2o1` [Compound 20, 5-{2-[2-Methoxy-4-(3-pyrrolidin-1-yl-azetidine-1-carbonyl)-phenyl]-furo[3,2-b]pyridin-7-yl}-2-(tetrahydro-pyran-4-yloxy)-benzonitrile], the IC50 (in assay [1]; at TBK1; on IKKε) was < 100 nM in each case.

Regarding `COc1cc(C(=O)O)ccc1-c1cc2nccc(-c3ccc(OC4CCOCC4)c(C#N)c3)c2o1` [Compound 21], the 50% inhibitory concentration (IC50) in assay [1] was 1000 to 5000 nM; at TBK1, < 100 nM; at IKKε, < 100 nM.

Take `COc1cc(C(=O)N(C)C)ccc1-c1cc2nccc(-c3ccc(N4CC[C@H](F)C4)c(C#N)c3)c2o1` [Compound 23, 4-{7-[3-Cyano-4-((S)-3-fluoro-pyrrolidin-1-yl)-phenyl]-furo[3,2-b]pyridin-2-yl}-3-methoxy-N,N-dimethyl-benzamide]: the IC50 is 100 to 1000 nM in assay [1], < 100 nM on TBK1 and < 100 nM at IKKε.

For `COc1cc(C(=O)N2CC(N(C)C)C2)ccc1-c1cc2nccc(-c3ccc(OC4CCOCC4)c(C#N)c3)c2o1` [Compound 24, 5-{2-[4-(3-Dimethylamino-azetidine-1-carbonyl)-2-methoxy-phenyl]-furo[3,2-b]pyridin-7-yl}-2-(tetrahydro-pyran-4-yloxy)-benzonitrile], the half-maximal inhibitory concentration (IC50) (in assay [1]; on TBK1; on IKKε) was < 100 nM throughout.
